Test results taken from patent publication US7820648B2, “Pyrimidine derivatives for the treatment of abnormal cell growth” (Pfizer Inc, priority 2005, dated 2010).

melting point: 108 to 112 °C
Structure (SMILES): CC(=O)N1[C@@H]2CC[C@H]1c1ccc(Nc3ncc(C)c(NC4CC4)n3)cc12
